Results on nine molecules are retold here after patent US8629283B2, “Compounds that modulate negative-sense, single-stranded RNA virus replication and uses thereof” (Icahn School of Medicine at Mount Sinai, priority 2008, dated 2014).

The subject of data set [1] is influenza B/Yamagata/88 virus. Type of data set: cell-based.
The test system of data set [2] is Newcastle disease virus (NDV/B1). Type of data set: cell-based.
Data set [3] relates to vesicular stomatitis virus (VSV). The data set is classed as cell-based.
For data set [4], the system named is influenza virus WSN. Type of data set: cell-based, influenza A virus.
In data set [5] the test system is influenza virus. Type of data set: cell-based.
Data set [6] has as its system A549 cells.
Data set [7] relates to influenza A virus (FluA).
The nature of data set [8]: in vitro. The note with it: dog.
Data set [9] in a line: in vitro. The note with it: mouse.
The subject of data set [10] is influenza A virus (FluA). The experiment in a line: in vitro. The note with it: human.
In data set [11] the test system is influenza A virus (FluA). The experiment in a line: microbe, parasite or virus in culture.
Data set [12] concerns VSV. The data set is classed as cell-based, vesicular stomatitis virus.
For data set [13], the system named is retrovirus MLV. The data set is classed as cell-based.
Data set [14] concerns influenza A/Wyoming/03/2003 virus. The data set is classed as cell-based.
Data set [15] concerns influenza A/Moscow/10/99 virus. Type of data set: cell-based.
Data set [16] concerns H5N1/PR8 virus. The data set is classed as cell-based, influenza A virus.
Data set [17] has as its system influenza A/WSN/33 virus.
Data set [18] has as its target influenza viral RNA polymerase (Influenza A virus, UniProt P03427+P03430+P15659). Type of data set: cell-based.
Data set [19] concerns influenza A/WSN/33 virus. Type of data set: cell-based.
Data set [20] deals with caspase-3. As to conditions: human, 6 h.
The subject of data set [21] is host cell replication machinery.
Data set [22] can be described thus: in vitro. The note with it: human.
Data set [23] can be described thus: in vitro. As to conditions: human. The source holds these as a separate data set.
Data set [24] deals with influenza A/WSN/33 virus. The experiment in a line: microbe, parasite or virus in culture. The note with it: A549, 24 h.

Like-named read-outs stand apart in the source and are kept apart here. Marks after values point to notes of the source that are not given here.

For `CN(c1nc(-c2ccc(Br)cc2)cs1)C1CCS(=O)(=O)C1` (stereo not shown) [A35, 4-(4-bromophenyl)-N-methyl-N-(tetrahydro-1,1-dioxido-3-thienyl)-2-thiazolamine], in data set [1], the “inhibition of FluB (A549)” value is 63% (A549)* and the “inhibition of influenza B virus” value is recorded as “less significant inhibition”. Moreover, the “inhibition of NDV” value in data set [2] is “less significant inhibition”. Further, the “inhibition of VSV” value in [3] is reported as “less significant inhibition”. Also, the “inhibition of viral replication” value in [4] came to 4 logs. Further, the “effect on entry of influenza virus” value in data set [5] is “did not affect the entry step”. Further, the “CC10 (A549), concentration of 10% cytotoxicity” value in data set [6] (human) worked out at 11200 nM. Besides, in data set [7], the “Inhibition of FluA (Table 5)” value worked out at 99.99%*, the “inhibition of FluA (293T)” value was roughly 50%, the “inhibition of FluA (A549)” value worked out at 99.988% and the “inhibition of FluA (Detroit)” value was roughly 95.6%. In data set [7], the “inhibition of FluA (HTBE)” value turned out to be 99.98%, the “inhibition of FluA (HUH7.5)” value is roughly 98.4%, the “inhibition of FluA (MDCK)” value is reported as roughly 75% and the “inhibition of FluA (MEF)” value is roughly 99.6%. In addition, in [7], the “inhibition of influenza virus replication” value is listed as “up to 4 logs” and the “SI (MDCK)” value worked out at 7. Further, the CC50 in data set [8] is 26800 nM. Besides, the CC50 in data set [9] was found to be 96600 nM. For the same molecule, the selectivity ratio in [10] was determined as 53. Moreover, in [11] (A549, read-out: IC50 (A549)), the IC50 is 2100 nM. For the same molecule, in data set [11] (HEK-293T, read-out: IC50 (293T)), the IC50 was determined as 6200 nM. Besides, the IC50 in [11] (Huh7.5, read-out: IC50 (HUH7.5)) stood at 3970 nM. Further, the IC50 in [11] (MDCK, read-out: IC50 (MDCK)) came out at 3910 nM. Further, the IC50 in data set [11] (MEF, read-out: IC50 (MEF)) came to 2640 nM. For the same molecule, the IC50 in data set [11] (read-out: IC50 (Detroit)) was determined as 2070 nM. The IC50 in data set [11] (read-out: IC50 (HTBE)) is 1980 nM.
For `COc1cc2c(O)c3c(c(-c4ccc5c(c4)OCO5)c2cc1OC)C(=O)OC3` [C2, 9-(benzo[d][1,3]dioxol-5-yl)-4-hydroxy-6,7-dimethoxynaphtho[2,3-c]furan-1(3H)-one], the “inhibition of FluB (A549)” value in data set [1] was 63% (A549)*. Also, in data set [4], the “effect on course of infection” value is “did not affect the course of infection”. In addition, the “effect on entry of influenza virus” value in [5] is “inhibited”. The “effect on entry of VSV” value in data set [12] is reported as “inhibited”. The “effect on entry of MLV” value in [13] was “unaffected”. Besides, in data set [7], the “inhibition of FluA (A549)” value is reported as 94.7%, the “inhibition of FluA (HTBE)” value is 99.96%, the “inhibition of FluA (MDCK)” value is roughly 87.5% and the “inhibition of FluA (MEF)” value was roughly 96%. Also, in [7], the “inhibition of influenza virus replication” value is “up to 3.5 logs” and the “SI (MDCK)” value came out at 4. The molecule further registered a CC50 in data set [8] of 670 nM. In data set [9], the CC50 worked out at 4850 nM. Also, the selectivity ratio in [10] was determined as 82. Besides, the IC50 in data set [11] (A549, read-out: IC50 (A549)) came out at 1600 nM. The IC50 in [11] (MDCK, read-out: IC50 (MDCK)) was 150 nM. Also, the IC50 in data set [11] (MEF, read-out: IC50 (MEF)) was found to be 340 nM. Also, in data set [11] (read-out: IC50 (HTBE)), the IC50 came to 59 nM. The IC50 in data set [11] (read-out: IC50 in HTBE cells) worked out at 59 nM.
For the molecule `NC(=NC(=O)c1nc(Cl)c(N)nc1N)NCc1ccc(Cl)cc1Cl` [2′,4′-dichlorobenzamil], in data set [1], the “increase of viral titer compared to untreated cells” value (shortened to “increase … to untreated cells”) amounted to 4 fold. Moreover, the “maximum viral titer compared to untreated cells” value in [14] was “significant increase”. Also, the “maximum viral titer compared to untreated cells” value in [15] is listed as “significant increase”. In data set [16], the “increase … to untreated cells” value is roughly 20 fold. Moreover, in [17], the “increase in viral titers in Vero cells” value was determined as 11 fold, the “increase of viral titer compared to untreated control” value is 10^3 fold and the “influenza virus growth versus untreated control” value was “boost influenza virus replication”.
As for `NC(=O)c1ncn([C@@H]2O[C@H](CO)[C@@H](O)[C@H]2O)n1` [ribavirin, reference compound], in [18], the “inhibition of viral RNA polymerase activity” value is recorded as 90%.
Take `C=C(C)[C@@]12O[C@@]3(c4ccccc4)O[C@@H]1[C@@H]1[C@@H]4O[C@]4(CO)[C@@H](O)[C@]4(O)C(=O)C(C)=C[C@H]4[C@@]1(O3)[C@H](C)[C@H]2OC(=O)/C=C/C=C/c1ccccc1` [mezerein]: the “increase … to untreated cells” value came to 8 fold in data set [1] and 17 fold in data set [17]. For the same molecule, the “maximum viral titer compared to untreated cells” value in data set [14] and in [15] was “significant increase” each time. Further, the “increase in viral titers in Vero cells” value in data set [17] is recorded as 15 fold.
Take `NC(=Nc1ccccc1)NC(=O)c1nc(Cl)c(N)nc1N` [phenamil]: the “HTS result (luciferase signal of influenza mini-genome reporter)” value (shortened to “HTS result”) in data set [19] is reported as “increased luciferase signals”. Moreover, in [17], the “increase of viral titer compared to untreated control” value is given as 16 fold. For the same molecule, the “induction of apoptosis (caspase-3 activity, fluorescence vs untreated cells)” value in data set [20] is 1.3 fold.
As for `Cc1[nH]c2ccc(-c3nnc(SCC(=O)N4CCCC4)o3)cc2c1C` [A3, 2-(5-(2,3-dimethyl-1H-indol-5-yl)-1,3,4-oxadiazol-2-ylthio)-1-(pyrrolidin-1-yl)ethanone], the “inhibition of FluB (A549)” value in data set [1] is 94% (A549)*. Further, in [1], the “inhibition of growth of influenza B virus” value is on record as “about 1.5 logs”. Besides, the “inhibition of viral RNA polymerase activity” value in data set [18] is “up to 99%”. In addition, the “effect on entry of influenza virus” value in [5] is “did not inhibit viral entry”. Also, the “CC10 (A549), concentration of 10% cytotoxicity” value in data set [6] (human) came to 38000 nM. Also, in [7], the “Inhibition of FluA (Table 5)” value amounted to 99.2%*. The “inhibition of FluA (A549)” value in [7] worked out at 97%. In data set [7], the “inhibition of FluA (HTBE)” value is recorded as 99.99%. Further, the “inhibition of FluA (MDCK)” value in [7] is roughly 99.6%. For the same molecule, the “inhibition of FluA (MEF)” value in data set [7] is recorded as roughly 91.2%. In data set [7], the “SI (MDCK)” value is greater than 122. For the same molecule, in [21], the “effect on overall host cell replication machinery (renilla luciferase control plasmid)” value was “not affected”. Further, the CC50 at 24 h in data set [22] is 268000 nM. The CC50 in data set [8] is greater than 100000 nM; in [9], greater than 100000 nM; in data set [23], 108000 nM. In addition, the selectivity ratio in [10] amounted to 496. Further, the IC50 in [11] (A549, read-out: IC50 (A549)) came to 540 nM; in [11] (MDCK, read-out: IC50 (MDCK)), 820 nM; in data set [11] (MEF, read-out: IC50 (MEF)), 3600 nM; in [11] (read-out: IC50 (HTBE)), 42 nM; in data set [11] (read-out: IC50 in HTBE cells), 42 nM.
In the case of `CC(=O)c1c(O)c(C)c(O)c(Cc2c(O)c3c(c(C(=O)/C=C/c4ccccc4)c2O)OC(C)(C)C=C3)c1O` [rottlerin], the “HTS result” value in data set [19] was “potential influenza virus inhibitors”. Moreover, the “reduction in viral titer compared to untreated control” value is given as 80% in [1] and 93% in data set [17]. In addition, the “concentrations found non-toxic / not decreasing cell viability, up to” value in data set [6] (A549 cells, 24 h, MTS assay) is recorded as “up to 1.28 μM”. In data set [17], the “SI [CC50/IC50] selective index” value stood at 39. For the same molecule, the values for the IC50 in [24] (read-out: IC50 (compound concentration of 50% inhibition of viral replication)) and in data set [24] (read-out: IC50 (half maximal inhibitory concentration)) were 460 nM and 465 nM, respectively.
In the case of `C[C@@H]1O[C@@H](O[C@H]2C[C@@H](O)[C@]3(CO)[C@H]4[C@H](O)C[C@]5(C)[C@@H](C6=CC(=O)OC6)CC[C@]5(O)[C@@H]4CC[C@]3(O)C2)[C@H](O)[C@H](O)[C@H]1O` [ouabain], the “HTS result” value in data set [19] is recorded as “potential influenza virus inhibitors”. The “inhibition of NDV replication” value in [2] is given as “significantly inhibited”. The “inhibition of VSV replication” value in data set [3] was “significantly inhibited”. In data set [6] (human), the CC50 is 47 nM and the “concentration that maintained at least an 80% cell viability (CC20)” value is listed as 20 nM. For the same molecule, the “decrease of viral titer compared to untreated control” value in data set [17] is 99.1%.
